# Experimental data taken from paper PMC2653189 (PLoS ONE, 2009).
# Tests used:
# Stat3 = Stat3 (Homo sapiens, UniProt P40763); test: Stat3/pY-peptide binding assay (SPR, BIAcore); conditions: recombinant Stat3 500 nM; immobilized EGFR Y1068 phosphododecapeptide; 25°C; read-out: SPR IC50, inhibition of Stat3 binding to pY peptide ligand
# Procedure: A control (Stat3 with DMSO but without compound) was run at the beginning and the end of each cycle (40 sample injections) to ensure that the integrity of the sensor chip was maintained throughout the cycle run. The average of the two controls was normalized to 100% and used to evaluate the effect of each compound on Stat3 binding. Responses were normalized by dividing the value at 2 min by the response obtained in the absence of compounds at 2 min and multiplying by 100.
# [1] = system: IL-6-mediated phosphorylation of Stat3; test: Immunoblot of IL-6-mediated Stat3 phosphorylation in HepG2 cells; type: cell-based; conditions: Homo sapiens, compound 60 min, then IL-6 30 ng/ml 30 min, read-out: pStat3 IC50, inhibition of IL-6-mediated Stat3 phosphorylation
# Procedure: The human hepatocellular carcinoma cell line (HepG2) was grown in 6-well plates under standard conditions. Cells were pretreated with compounds (0, 1, 3, 10, 30, 100 and 300 µM) for 1 hour then stimulated under optimal conditions with either interleukin-6 (IL-6; 30 ng/ml for 30 min) to activate Stat3 or interferon gamma (IFN-γ; 30 ng/ml for 30 min) to activate Stat1 [28]. Cultures were then harvested and proteins extracted using high-salt buffer, as described. Briefly, extracts were mixed with 2× sodium dodecyl sulfate (SDS) sample buffer (125 mM Tris-HCL pH 6.8; 4% SDS; 20% glycerol; 10% 2-mercaptoethanol) at a 1∶1 ratio and heated for 5 minutes at 100°C. Proteins (20 µg) were separated by 7.5% SDS-PAGE and transferred to polyvinylidene fluoride (PVDF) membrane (Millipore, Waltham, MA) and immunoblotted. Prestained molecular weight markers (BioRad; Hercules, CA) were included in each gel. Membranes were probed serially with antibody against Stat1 pY701 or Stat3 pY705 followed by antibody against Stat1 or Stat3 (Transduction labs, Lexington, KY) then antibody against β–actin (Abcam, Cambridge, MA). Membranes were stripped between antibody probing using Restore™ Western Blot Stripping Buffer (Thermo Fisher Scientific Inc., Waltham, MA) per the manufacturer's instructions. Horseradish peroxidase-conjugated goat-anti-mouse IgG was used as the secondary antibody (Invitrogen Carlsbad, CA) and the membranes were developed with enhanced chemiluminescence (ECL) detection system (Amersham Life Sciences Inc.; Arlington Heights, IL.).
# Figure 2 Effect of compounds on ligand-mediated Stat3 and Stat1 phosphorylation. […] Cells were then stimulated with IL-6 (30 ng/ml) for 30 min. Protein extracts of cells were separated by SDS-PAGE, blotted and developed serially with antibodies to pStat3, total Stat3 and β-actin. Blots were stripped between each antibody probing. Band intensities were quantified by densitometry. […] The best-fitting curve was determined using 4-Parameter Logistic Model/Dose Response/XLfit 4.2, IDBS software and was used to calculate the IC50 value (Table 1). […]
# [2] = system: breast cancer cell lines with constitutive Stat3 activity—MDA-MB-468, MDA-MB-231 and MDA-MB-435; test: Apoptosis assay, summary over the cell lines with constitutive Stat3 activity; type: cell-based; conditions: Homo sapiens, 24 hr, read-out: EC50 apoptosis induction, range over three cell lines
# Procedure: (§1) Human breast carcinoma cell lines MDA-MB-468, MDA-MB-231, MBA-MD-435 and MCF7 were kindly provided by Dr. Powel H. Brown (Breast Cancer Center, Baylor College of Medicine). Breast cancer cell line, MDA-MB-453 was kindly provided by Dr. Shou Jiang (Breast Cancer Center, Baylor College of Medicine). All cell lines were grown in DMEM medium supplemented with 10% fetal bovine serum (FBS), 25,000 units penicillin G, 25,000 µg streptomycin, and 131.4 mg L-Glutamine and cultured in the incubator under the condition of 95% air, 5% CO2 at 37°C [33]. Cells were seeded at 2,500 cells/cm^2 into 12-well plates. At 80% confluency, cells were washed with PBS and supplemented with fresh medium containing compound or the topoisomerase I-inhibitor, camptothecin, at 0, 0.1, 0.3, 1, 3, 10, 30, 100, 300 µM. At 24 hours, treatment was terminated by removing the medium from each well. Cells were lysed with cell lysis buffer (600 µl for 30 minutes at 25°C). Cell lysate (200 µl) was centrifuged at 200 g for 10 minutes and 20 µl of each supernatant was assayed for nucleosomes using the Cell Death Detection ELISA (Roche Applied Science) as described by the manufacturer. The percent maximum nucleosome level was calculated by dividing the nucleosome level by the maximum nucleosome level achieved in the assay and multiplying by 100.
# (§2) MDA-MB-468 (panel A), MDA-MB-231 (panel B), MDA-MB-435 (panel C), MCF7 (panel D) and MDA-MB-453 (panel E) were seeded in 12-well plates, grown overnight then treated with the indicated compound for 24 hr. Cells were centrifuged and the supernatants assayed for nucleosome levels by ELISA. The percent maximum nucleosome level was calculated (nucleosome level ÷ maximum nucleosome level achieved in the assay ×100) and plotted as a function of the log compound concentration. The best-fitting curve was determined using 4-ParameterLogistic Model/Dose Response One Site/XLfit 4.2, IDBS software and was used to determine the EC50 value (Table 3).
# [3] = system: cell lines MDA-MB-453 and MCF7; test: Apoptosis assay, summary over the cell lines without constitutive Stat3 activity; type: cell-based; conditions: Homo sapiens, concentrations up to 300 µM, read-out: EC50 apoptosis induction, MDA-MB-453 and MCF7
# Procedure: as §1, §2
# Sequence of Stat3 (P40763 whole entry, species assumed): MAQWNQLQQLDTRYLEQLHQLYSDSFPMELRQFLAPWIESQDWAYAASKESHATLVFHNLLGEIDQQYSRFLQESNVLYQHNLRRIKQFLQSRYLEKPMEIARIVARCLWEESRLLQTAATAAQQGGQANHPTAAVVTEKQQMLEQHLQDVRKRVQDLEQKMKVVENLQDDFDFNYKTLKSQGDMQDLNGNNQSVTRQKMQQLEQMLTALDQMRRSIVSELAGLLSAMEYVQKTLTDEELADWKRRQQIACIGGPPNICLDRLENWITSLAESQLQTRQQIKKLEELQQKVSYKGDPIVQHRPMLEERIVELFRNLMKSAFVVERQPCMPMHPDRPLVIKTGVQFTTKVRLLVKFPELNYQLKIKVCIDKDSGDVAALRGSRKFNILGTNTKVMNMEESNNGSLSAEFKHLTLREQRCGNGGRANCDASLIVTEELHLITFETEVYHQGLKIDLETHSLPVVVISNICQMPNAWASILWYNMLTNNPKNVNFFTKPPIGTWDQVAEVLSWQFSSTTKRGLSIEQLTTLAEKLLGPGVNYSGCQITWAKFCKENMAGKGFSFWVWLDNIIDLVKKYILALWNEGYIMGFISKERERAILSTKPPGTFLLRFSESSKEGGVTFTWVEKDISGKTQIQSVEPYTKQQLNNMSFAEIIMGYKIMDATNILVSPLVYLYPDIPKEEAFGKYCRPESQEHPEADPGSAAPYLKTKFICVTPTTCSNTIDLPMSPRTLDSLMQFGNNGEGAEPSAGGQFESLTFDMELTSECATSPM
smiles,measurement,setting,value
"O=C(O)c1ccc(C=CC(=O)c2ccc3c(c2)OCCO3)cc1 [Cpd3, 4-[3-(2,3-dihydro-1,4-benzodioxin-6-yl)-3-oxo-1-propen-1-yl]benzoic acid]",IC50,Stat3,447 µM
same,IC50,[1],91 µM
same,EC50,[2],2.3 to 26.9 µM
same,EC50,[3],> 300 µM
